According to patent US20180327367A1, “MACROCYCLIC BROAD SPECTRUM ANTIBIOTICS” (priority 2015, published 2018):
In brackets after ≈: the same amount, converted by molar mass. Where two headings read alike, the source gives them in different places.

Experiments:
Format in all cases: cell-based
[1] = tested on: Methicillin Resistant Staphylococcus aureus strain USA 300, NRS384; experiment: Minimum inhibitory concentration, broth micro-dilution (CLSI), S. aureus; details: for MIC: Staphylococcus aureus, MRSA / NRS 384 / USA300, 22 h
Method: (§1) In vitro antimicrobial activity of each compound was determined by measuring minimal inhibitor concentrations (MICs) using the broth micro-dilution technique as approved by the Clinical and Laboratory Standards Institute (CLSI) (Methods for Dilution Antimicrobial Susceptibility Tests for Bacteria that Grow Aerobically; Approved Standard—Eighth Edition. CLSI document M07-A8. Wayne, Pa.: Clinical and Laboratory Standards; 2009). Antibacterial activity was measure against three strains of bacteria: a Methicillin Resistant Staphylococcus aureus strain USA 300, NRS384 (S. aureus); a strain of Escherichia coli MC4100 harboring the IMP4213 (E. coli IMP), which results in increased outer-membrane permeability (B Martin and Silhavy T. Imp/OstA is required for cell envelope biogenesis in Escherichia coli. (2002) Molecular Microbiology, 45(5), 1289-1302), and Escherichia coli ATCC 25922 (E. coli), a clinically relevant Gram-negative strain. Cells were inoculated onto plates of Trypyticase Soy Agar or Luria Agar respectively and grown at 35° C. for 20 hours. Inocula suspensions were prepared by scraping cells into 1 mL of testing media (cation adjusted Mueller Hinton Broth supplemented with 0.002% v/v Tween-80) and diluting to a final OD600 nm of 0.01.
(§2) Test compounds were prepared in DMSO at a concentration of 10 mg/mL. […] In protocol 2, the compound stocks were diluted into testing media at a concentration of 4 μg/mL and serial 2-fold dilutions were made in the same media, in 96-well U bottom microtiter dishes, for a total of 10 compound concentrations. In protocol 3, compound stocks were diluted into testing media at a concentration of 0.5 μg/mL, with serial 2-fold dilutions conducted as described above. […] Inocula suspensions were added to the 2-fold serial dilutions of test compounds to a final density of OD OD600 nm of 0.0005 and incubated at 35° C. for 22 hours.

[2] = tested on: Escherichia coli MC4100 harboring the IMP4213 (E. coli IMP); experiment: microbe, parasite or virus in culture; details: for MIC: Escherichia coli, 22 h; for MIC (μg/mL) E. coli IMP: E. coli MC4100 IMP4213, increased outer-membrane permeability
Method: as §1, §2

[3] = tested on: Escherichia coli ATCC 25922; experiment: Minimum inhibitory concentration, broth micro-dilution (CLSI), E. coli; details: for MIC: Escherichia coli, ATCC25922, 22 h
Method: Cells were inoculated onto plates of Trypyticase Soy Agar or Luria Agar respectively and grown at 35° C. for 20 hours. Inocula suspensions were prepared by scraping cells into 1 mL of testing media (cation adjusted Mueller Hinton Broth supplemented with 0.002% v/v Tween-80) and diluting to a final OD600 nm of 0.01.
as §2

[4] = MRSA USA 300 NRS384, 35° C., 22 hours, read-out: MIC (μg/mL) S. aureus
[5] = read-out: MIC (μg/mL) E. coli IMP, E. coli MC4100 IMP4213, increased outer-membrane permeability, 35° C., 22 hours
[6] = E. coli ATCC 25922, 35° C., 22 hours, read-out: MIC (μg/mL) E. coli
[7] = read-out: MIC (μg/mL) S. aureus, MRSA USA 300 NRS384, 35° C., 22 hours
[8] = read-out: MIC (μg/mL) E. coli, E. coli ATCC 25922, 35° C., 22 hours
[9] = read-out: MIC (μg/mL) S. aureus
[10] = read-out: MIC (μg/mL) E. coli IMP
[11] = MRSA USA 300 NRS384, 35° C., 22 hours
[12] = E. coli ATCC 25922, 35° C., 22 hours

Row | SMILES | MIC [1, 4] [µg/mL] | MIC [2, 5] [µg/mL] | MIC [3, 6] [µg/mL] | other results
1 | Cc1cc(C2(C)CC2)ccc1C(=O)N[C@@H](CCN)C(=O)N(C)[C@@H]1C(=O)N[C@@H](C)C(=O)N[C@H](C(=O)NCC#N)Cc2ccc(OCCN)c(c2)-c2cc1ccc2OCCN [Compound 435] | 0.5 (≈ 0.617 µM) | 0.063 (≈ 0.0778 µM) | 4 (≈ 4.94 µM) | 
2 | Cc1cc(C(C)C)ccc1C(=O)N[C@@H](CCN)C(=O)N(C)[C@@H]1C(=O)N[C@@H](C)C(=O)N[C@H](C(=O)NCC#N)Cc2ccc(OCCN)c(c2)-c2cc1ccc2OCCN [Compound 433] |  | 0.094 (≈ 0.118 µM) |  | MIC [1, 7]: 0.5 µg/mL (≈ 0.627 µM); MIC [3, 8]: 4 µg/mL (≈ 5.01 µM)
3 | CCCCCCCc1ccc(C(=O)N(C)[C@@H](CCN)C(=O)N(C)[C@@H]2C(=O)N[C@@H](C)C(=O)N[C@H](C(=O)NCC#N)Cc3ccc(OCCN)c(c3)-c3cc2ccc3OCCN)cc1 [Compound 396] |  |  |  | MIC [1, 9]: 0.094 µg/mL (≈ 0.11 µM); MIC [2, 10]: 0.094 µg/mL (≈ 0.11 µM); MIC ([3]; read-out: MIC (μg/mL) E. coli): 16 µg/mL (≈ 18.7 µM)
4 | Cc1cc(C2CC2c2ccccc2)ccc1C(=O)N[C@@H](CCN)C(=O)N(C)[C@@H]1C(=O)N[C@@H](C)C(=O)N[C@H](C(=O)NCC#N)Cc2ccc(OCCN)c(c2)-c2cc1ccc2OCCN (mixture of isomers) [Compound 439] |  |  |  | MIC (μg/mL) S. aureus [1, 11]: 0.047 µg/mL; MIC (μg/mL) E. coli IMP ([2]; 35° C., 22 hours): 0.0078 µg/mL; MIC (μg/mL) E. coli [3, 12]: 0.5 µg/mL
5 | CCCCCCCCCCNCCS(=O)(=O)N(C)[C@@H]1C(=O)N[C@@H](C)C(=O)N[C@H](C(=O)NCC#N)Cc2ccc(OCCN)c(c2)-c2cc1ccc2OCCN [Compound 351] | 1 (≈ 1.27 µM) | > 4 | > 64 | 
6 | CCCCCCCCc1ccc2c(c1)C(C)N([C@@H](CCN)C(=O)N(C)[C@@H]1C(=O)N[C@@H](C)C(=O)N[C@H](C(=O)NCC#N)Cc3ccc(OCCN)c(c3)-c3cc1ccc3OCCN)C2=O (stereo partly drawn) [Compound 489] | 0.19 (≈ 0.216 µM) | 0.25 (≈ 0.284 µM) | 8 (≈ 9.09 µM) | 
7 | Cc1nc(C#CC2CCCCC2)ncc1C(=O)N[C@@H](CCN)C(=O)N(C)[C@@H]1C(=O)N[C@@H](C)C(=O)N[C@H](C(=O)NCC#N)Cc2ccc(OCCN)c(c2)-c2cc1ccc2OCCN [Compound 312] | 0.25 (≈ 0.289 µM) | 0.023 (≈ 0.0266 µM) | 0.5 (≈ 0.579 µM) | 
8 | CCCCCCCCCC(=O)N[C@H](C(=O)N[C@@H](CCN)C(=O)N(C)[C@@H]1C(=O)N[C@@H](C)C(=O)N[C@H](C(=O)NCC#N)Cc2ccc(OCCN)c(c2)-c2cc1ccc2OCCN)[C@@H](C)O [Compound 356] |  | 0.13 (≈ 0.146 µM) |  | MIC [1, 7]: 0.094 µg/mL (≈ 0.105 µM); MIC [3, 8]: 12 µg/mL (≈ 13.4 µM)
9 | Cc1nc(-c2ccc(C(C)(C)C)cc2)ncc1C(=O)N[C@@H](CCCN)C(=O)N(C)[C@@H]1C(=O)N[C@@H](C)C(=O)N[C@H](C(=O)NCC#N)Cc2ccc(OCCN)c(c2)-c2cc1ccc2OCCN [Compound 153] |  |  |  | MIC [1, 9]: 0.023 µg/mL (≈ 0.0254 µM); MIC [2, 10]: 0.0059 µg/mL (≈ 0.00653 µM); MIC ([3]; read-out: MIC (μg/mL) E. coli): 0.19 µg/mL (≈ 0.21 µM)
10 | C[C@@H]1NC(=O)[C@@H](N(C)C(=O)[C@H](CCN)NC(=O)c2ccc3c(c2)CCCC3)c2ccc(OCCN)c(c2)-c2cc(ccc2OCCN)C[C@@H](C(=O)NCC#N)NC1=O [Compound 119] | 1 (≈ 1.26 µM) | 0.25 (≈ 0.314 µM) | 16 (≈ 20.1 µM) | 
11 | CCCCCCCCCC(=O)N[C@H](C)C(=O)NCCC(=O)N[C@@H](CCN)C(=O)N(C)[C@@H]1C(=O)N[C@@H](C)C(=O)N[C@H](C(=O)NCC#N)Cc2ccc(OCCN)c(c2)-c2cc1ccc2OCCN [Compound 365] | 0.38 (≈ 0.407 µM) | 0.5 (≈ 0.535 µM) | 64 (≈ 68.5 µM) | 
12 | CCCCc1ccc(C)c(C(=O)N[C@@H](CCCN)C(=O)N(C)[C@@H]2C(=O)N[C@@H](C)C(=O)N[C@H](C(=O)NCC#N)Cc3ccc(OCCN)c(c3)-c3cc2ccc3OCCN)c1 [Compound 207] | 1.5 (≈ 1.82 µM) | 0.063 (≈ 0.0763 µM) | 16 (≈ 19.4 µM) | 
13 | CCCCCCc1ccc(S(=O)(=O)N[C@@H](CCN)C(=O)N(C)[C@@H]2C(=O)N[C@@H](C)C(=O)N[C@H](C(=O)NCC#N)Cc3ccc(OCCN)c(c3)-c3cc2ccc3OCCN)c(C)c1 [Compound 347] |  | 0.063 (≈ 0.0719 µM) |  | MIC [1, 7]: 0.063 µg/mL (≈ 0.0719 µM); MIC [3, 8]: 8 µg/mL (≈ 9.13 µM)
14 | CCCCCCOCc1ccc(C(=O)N[C@@H](CCN)C(=O)N(C)[C@@H]2C(=O)N[C@@H](C)C(=O)N[C@H](C(=O)NCC#N)Cc3ccc(OCCN)c(c3)-c3cc2ccc3OCCN)c(Cl)c1 [Compound 297] | 0.063 (≈ 0.0707 µM) | 0.0078 (≈ 0.00876 µM) | 1 (≈ 1.12 µM) | 
15 | CCCCCCCCCC(=O)N[C@H](CO)C(=O)N1CC(N)C[C@H]1C(=O)N(C)[C@@H]1C(=O)N[C@@H](C)C(=O)N[C@H](C(=O)NCC#N)Cc2ccc(OCCN)c(c2)-c2cc1ccc2OCCN (stereo partly drawn) [Compound 524-1] |  | 0.19 (≈ 0.213 µM) |  | MIC [1, 7]: 0.22 µg/mL (≈ 0.247 µM); MIC [3, 8]: 16 µg/mL (≈ 18 µM)
16 | Cc1cc(OCC2C[C@H]3CC[C@@H]2C3)ccc1C(=O)N[C@@H](CCN)C(=O)N(C)[C@@H]1C(=O)N[C@@H](C)C(=O)N[C@H](C(=O)NCC#N)Cc2ccc(OCCN)c(c2)-c2cc1ccc2OCCN (stereo partly drawn) [Compound 287] | 0.094 (≈ 0.107 µM) | 0.0078 (≈ 0.00886 µM) | 0.38 (≈ 0.432 µM) | 
17 | Cc1cc(-n2cccn2)ccc1C(=O)N[C@@H](CCN)C(=O)N(C)[C@@H]1C(=O)N[C@@H](C)C(=O)N[C@H](C(=O)NCC#N)Cc2ccc(OCCN)c(c2)-c2cc1ccc2OCCN [Compound 411] |  |  |  | MIC [1, 9]: 2 µg/mL (≈ 2.43 µM); MIC [2, 10]: 0.5 µg/mL (≈ 0.608 µM); MIC ([3]; read-out: MIC (μg/mL) E. coli): 16 µg/mL (≈ 19.5 µM)
18 | CCCCc1ccc(C(=O)N[C@@H](CCN)CC(=O)N(C)[C@@H]2C(=O)N[C@@H](C)C(=O)N[C@H](C(=O)NCC#N)Cc3ccc(OCCN)c(c3)-c3cc2ccc3OCCN)c(C)c1 [Compound 511] | 1.5 (≈ 1.82 µM) | 1 (≈ 1.21 µM) | > 64 | 
19 | CCCCCCc1ccc(C(=O)N2CCC(N)C[C@H]2C(=O)N(C)[C@@H]2C(=O)N[C@@H](C)C(=O)N[C@H](C(=O)NCC#N)Cc3ccc(OCCN)c(c3)-c3cc2ccc3OCCN)c(C)c1 (single isomer, unassigned) [Compound 526-2] |  |  |  | MIC (μg/mL) S. aureus [1, 11]: >0.5 µg/mL; MIC (μg/mL) E. coli IMP ([2]; 35° C., 22 hours): >0.13 µg/mL; MIC (μg/mL) E. coli [3, 12]: 64 µg/mL (≈ 73.9 µM)
20 | Cc1cc(-c2ccc(CC(C)C)nc2)ccc1C(=O)N[C@@H](CCN)C(=O)N(C)[C@@H]1C(=O)N[C@@H](C)C(=O)N[C@H](C(=O)NCC#N)Cc2ccc(OCCN)c(c2)-c2cc1ccc2OCCN [Compound 181] | 0.13 (≈ 0.146 µM) | 0.031 (≈ 0.0349 µM) | 2 (≈ 2.25 µM) | 
21 | CCCCCCCCCC(=O)N[C@@H](C)C(=O)NCC(=O)N[C@@H](CCN)C(=O)N(C)[C@@H]1C(=O)N[C@@H](C)C(=O)N[C@H](C(=O)NCC#N)Cc2ccc(OCCN)c(c2)-c2cc1ccc2OCCN [Compound 363] |  | 0.5 (≈ 0.543 µM) |  | MIC [1, 7]: 0.25 µg/mL (≈ 0.272 µM); MIC [3, 8]: 64 µg/mL (≈ 69.6 µM)
22 | C[C@@H]1NC(=O)[C@@H](N(C)C(=O)[C@H](CCO)NC(=O)c2ccc(-c3ccc(Cl)cc3)cc2)c2ccc(OCCN)c(c2)-c2cc(ccc2OCCN)C[C@@H](C(=O)NCC#N)NC1=O [Compound 259] | 0.5 (≈ 0.586 µM) | 0.25 (≈ 0.293 µM) | 64 (≈ 75 µM) | 
23 | Cc1cc(-c2ccc(CC(C)C)cc2)ccc1C(=O)N[C@@H](CC(N)=O)C(=O)N(C)[C@@H]1C(=O)N[C@@H](C)C(=O)N[C@H](C(=O)NCC#N)Cc2ccc(OCCN)c(c2)-c2cc1ccc2OCCN [Compound 240] | 0.19 (≈ 0.211 µM) | 0.094 (≈ 0.104 µM) | 1.5 (≈ 1.66 µM) | 
24 | CCCCCCCOc1ccc(C(=O)N[C@@H](CCN)C(=O)N(C)[C@@H]2C(=O)N[C@@H](C)C(=O)N[C@H](C(=O)NCC#N)Cc3ccc(OCCN)c(c3)-c3cc2ccc3OCCN)c(C)c1C [Compound 294] | 0.063 (≈ 0.0713 µM) | 0.0078 (≈ 0.00882 µM) | 0.25 (≈ 0.283 µM) | 
25 | CCCCCCCCc1ccc(C(=O)N[C@@H](CCC(=O)NC)C(=O)N(C)[C@@H]2C(=O)N[C@@H](C)C(=O)N[C@H](C(=O)NCC#N)Cc3ccc(OCCN)c(c3)-c3cc2ccc3OCCN)c(C)c1 [Compound 501] | 0.38 (≈ 0.418 µM) | > 0.13 | 16 (≈ 17.6 µM) | 
